In patent US20260262643A1, “HERBICIDAL BENZOXAZINES” (FMC CORPORATION, priority 2022, published 2026):

Key:
kochia [1] = assay: Test C postemergence; format: in vivo, Bassia scoparia; conditions: 10 days, 0 to 100 scale (0 no effect, 100 complete control)
Method in brief: (§1)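 Soil-applied (pre) and foliar (post, 1–2 leaf, 2–10 cm) sprays; surfactant-containing non-phytotoxic solvent vehicle; loam/sand substrate. Readout: visual % control at 10 d, greenhouse, versus untreated.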

ragweed [2] = assay: Test C postemergence; format: in vivo, Ambrosia artemisiifolia; conditions: 10 days, 0 to 100 scale (0 no effect, 100 complete control)
Method in brief: as §1

foxtail, giant [3] = assay: Test C preemergence; format: in vivo, Setaria faberi; conditions: preemergence, 0 to 100 scale (0 no effect, 100 complete control)
Excerpt: (§2) Seeds of plant species selected from barnyardgrass (Echinochloa crusgalli), blackgrass (Alopecurus myosuroides), corn (Zea mays), foxtail, giant (giant foxtail, Setaria faberi), green foxtail (Setaria viridis), goosegrass (Eleusine indica), kochia (Bassia scoparia), oat, wild (wild oat, Avena fatua), pigweed, palmer (palmer amaranth, palmer pigweed, Amaranthus palmeri), Pigweed, Redroot (redroot pigweed, Amaranthus retroflexus), ragweed (common ragweed, Ambrosia artemisiifolia), ryegrass, Italian ([…] ryegrass, Lolium multiflorum), soybean (Glycine max), and wheat (Triticum aestivum) were planted into a blend of loam soil and sand and treated preemergence with a directed soil spray using test chemicals formulated in a non-phytotoxic solvent mixture which included a surfactant. At the same time, plants selected from these crops and weed species and also galium (catchweed bedstraw, Galium aparine) and horseweed (Erigeron canadensis) were planted in pots containing the same blend of loam soil and sand and treated with postemergence applications of test chemicals formulated in the same manner. Plants ranged in height from 2 to 10 cm and were in the one- to two-leaf stage for the postemergence treatment. Treated plants and untreated controls were maintained in a greenhouse for 10 days, after which time all treated plants were compared to untreated controls and visually evaluated for injury. Plant response ratings, summarized in Table C, are based on a 0 to 100 scale where 0 is no effect and 100 is complete control. A dash (-) response means no test result.

barnyardgrass [4] = assay: Test C postemergence; format: in vivo, Echinochloa crusgalli; conditions: 10 days, 0 to 100 scale (0 no effect, 100 complete control)
Method in brief: as §1

foxtail, giant [5] = assay: Test C postemergence; format: in vivo, Setaria faberi; conditions: 10 days, 0 to 100 scale (0 no effect, 100 complete control)
Excerpt: as §2

horseweed = assay: Test C postemergence; format: in vivo, Erigeron canadensis; conditions: 10 days, 0 to 100 scale (0 no effect, 100 complete control)
Method in brief: as §1

soybean [6] = assay: Test C preemergence; format: in vivo, Glycine max; conditions: preemergence, 0 to 100 scale (0 no effect, 100 complete control)
Method in brief: as §1

pigweed, palmer [7] = assay: Test C postemergence; format: in vivo, Amaranthus palmeri; conditions: 10 days, 0 to 100 scale (0 no effect, 100 complete control)
Method in brief: as §1

soybean [8] = assay: Test C postemergence; format: in vivo, Glycine max; conditions: 10 days, 0 to 100 scale (0 no effect, 100 complete control)
Method in brief: as §1

wheat [9] = assay: Test C preemergence; format: in vivo, Triticum aestivum; conditions: preemergence, 0 to 100 scale (0 no effect, 100 complete control)
Method in brief: as §1

wheat [10] = assay: Test C postemergence; format: in vivo, Triticum aestivum; conditions: 10 days, 0 to 100 scale (0 no effect, 100 complete control)
Method in brief: as §1

blackgrass [11] = assay: Test C preemergence; format: in vivo, Alopecurus myosuroides; conditions: preemergence, 0 to 100 scale (0 no effect, 100 complete control)
Method in brief: as §1

pigweed, palmer [12] = assay: Test C preemergence; format: in vivo, Amaranthus palmeri; conditions: preemergence, 0 to 100 scale (0 no effect, 100 complete control)
Method in brief: as §1

sedge, umbrella = assay: Test D flooded paddy test; format: in vivo, Cyperus difformis; conditions: 250 g ai/ha, applied to paddy water, visual rating after 13 to 14 days, scale 0 to 100 (0 no effect, 100 complete control)
Method in brief: (§3)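 2-leaf plants; flood 3 cm above soil; compound dosed into paddy water; greenhouse 13–14 d; visual rating vs controls, 0–100 (100 = complete control); dash = not tested.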

barnyardgrass [13] = assay: Test C preemergence; format: in vivo, Echinochloa crusgalli; conditions: preemergence, 0 to 100 scale (0 no effect, 100 complete control)
Method in brief: as §1

ducksalad = assay: Test D flooded paddy test; format: in vivo, Heteranthera limosa; conditions: 250 g ai/ha, applied to paddy water, visual rating after 13 to 14 days, scale 0 to 100 (0 no effect, 100 complete control)
Method in brief: as §3

oat, wild [14] = assay: Test C preemergence; format: in vivo, Avena fatua; conditions: preemergence, 0 to 100 scale (0 no effect, 100 complete control)
Method in brief: as §1

kochia [15] = assay: Test C preemergence; format: in vivo, Bassia scoparia; conditions: preemergence, 0 to 100 scale (0 no effect, 100 complete control)
Method in brief: as §1

corn [16] = assay: Test C postemergence; format: in vivo, Zea mays; conditions: 10 days, 0 to 100 scale (0 no effect, 100 complete control)
Method in brief: as §1

barnyardgrass [17] = assay: Test D flooded paddy test; format: in vivo, Echinochloa crus-galli; conditions: 250 g ai/ha, applied to paddy water, visual rating after 13 to 14 days, scale 0 to 100 (0 no effect, 100 complete control)
Method in brief: as §3

rice = assay: Test D flooded paddy test; format: in vivo, Oryza sativa; conditions: 250 g ai/ha, applied to paddy water, visual rating after 13 to 14 days, scale 0 to 100 (0 no effect, 100 complete control)
Method in brief: as §3

ryegrass, Italian [18] = assay: Test C postemergence; format: in vivo, Lolium multiflorum; conditions: 10 days, 0 to 100 scale (0 no effect, 100 complete control)
Method in brief: as §1

blackgrass [19] = assay: Test C postemergence; format: in vivo, Alopecurus myosuroides; conditions: 10 days, 0 to 100 scale (0 no effect, 100 complete control)
Method in brief: as §1

galium = assay: Test C postemergence; format: in vivo, Galium aparine; conditions: 10 days, 0 to 100 scale (0 no effect, 100 complete control)
Method in brief: as §1

oat, wild [20] = assay: Test C postemergence; format: in vivo, Avena fatua; conditions: 10 days, 0 to 100 scale (0 no effect, 100 complete control)
Method in brief: as §1

corn [21] = assay: Test C preemergence; format: in vivo, Zea mays; conditions: preemergence, 0 to 100 scale (0 no effect, 100 complete control)
Method in brief: as §1

ragweed [22] = assay: Test C preemergence; format: in vivo, Ambrosia artemisiifolia; conditions: preemergence, 0 to 100 scale (0 no effect, 100 complete control)
Method in brief: as §1

ryegrass, Italian [23] = assay: Test C preemergence; format: in vivo, Lolium multiflorum; conditions: preemergence, 0 to 100 scale (0 no effect, 100 complete control)
Method in brief: as §1

CC(C)c1cc(C(=O)N2C[C@H](C)Oc3c(Cl)cccc32)cc(-n2cncn2)c1 [Compound 316]
Plant response rating, Kochia (kochia [1]; 500 g ai/ha, postemergence): 80
Plant response rating, Kochia (kochia [1]; Postemergence, 125 g ai/ha): 30
Plant response rating, Ragweed (ragweed [2]; 500 g ai/ha, postemergence): 0
Plant response rating, Ragweed (ragweed [2]; Postemergence, 125 g ai/ha): 0
Foxtail, Giant plant response rating (foxtail, giant [3]; 500 g ai/ha): 100
Foxtail, Giant plant response rating (foxtail, giant [3]; Test C, 125 g ai/ha): 80
Plant response rating, Barnyardgrass (barnyardgrass [4]; 500 g ai/ha, postemergence): 50
Plant response rating, Barnyardgrass (barnyardgrass [4]; Postemergence, 125 g ai/ha): 10
Plant response rating, Foxtail, Giant (foxtail, giant [5]; 500 g ai/ha, postemergence): 90
Plant response rating, Foxtail, Giant (foxtail, giant [5]; Postemergence, 125 g ai/ha): 10
Plant response rating, Horseweed (horseweed; 500 g ai/ha, postemergence): 0
Plant response rating, Horseweed (horseweed; Postemergence, 125 g ai/ha): 0
Soybean plant response rating (soybean [6]; 500 g ai/ha): 50
Soybean plant response rating (soybean [6]; Test C, 125 g ai/ha): 0
Plant response rating, Pigweed, Palmer (pigweed, palmer [7]; 500 g ai/ha, postemergence): 60
Plant response rating, Pigweed, Palmer (pigweed, palmer [7]; Postemergence, 125 g ai/ha): 30
Plant response rating, Soybean (soybean [8]; 500 g ai/ha, postemergence): 100
Plant response rating, Soybean (soybean [8]; Postemergence, 125 g ai/ha): 100
Wheat plant response rating (wheat [9]; 500 g ai/ha): 20
Wheat plant response rating (wheat [9]; Test C, 125 g ai/ha): 0
Plant response rating, Wheat (wheat [10]; 500 g ai/ha, postemergence): 20
Plant response rating, Wheat (wheat [10]; Postemergence, 125 g ai/ha): 10
Blackgrass plant response rating (blackgrass [11]; 500 g ai/ha): 90
Blackgrass plant response rating (blackgrass [11]; Test C, 125 g ai/ha): 50
Pigweed, Palmer plant response rating (pigweed, palmer [12]; 500 g ai/ha): 90
Pigweed, Palmer plant response rating (pigweed, palmer [12]; Test C, 125 g ai/ha): 60
Plant response rating, Sedge, Umbrella (Flood) (sedge, umbrella): 0
Barnyardgrass plant response rating (barnyardgrass [13]; 500 g ai/ha): 90
Barnyardgrass plant response rating (barnyardgrass [13]; Test C, 125 g ai/ha): 30
Plant response rating, Ducksalad (Flood) (ducksalad): 0
Oat, Wild plant response rating (oat, wild [14]; 500 g ai/ha): 40
Oat, Wild plant response rating (oat, wild [14]; Test C, 125 g ai/ha): 20
Kochia plant response rating (kochia [15]; 500 g ai/ha): 0
Kochia plant response rating (kochia [15]; Test C, 125 g ai/ha): 0
Plant response rating, Corn (corn [16]; 500 g ai/ha, postemergence): 70
Plant response rating, Corn (corn [16]; Postemergence, 125 g ai/ha): 20
Plant response rating, Barnyardgrass (Flood) (barnyardgrass [17]): 0
Plant response rating, Rice (Flood) (rice): 0
Plant response rating, Ryegrass, Italian (ryegrass, Italian [18]; 500 g ai/ha, postemergence): 80
Plant response rating, Ryegrass, Italian (ryegrass, Italian [18]; Postemergence, 125 g ai/ha): 30
Plant response rating, Blackgrass (blackgrass [19]; 500 g ai/ha, postemergence): 70
Plant response rating, Blackgrass (blackgrass [19]; Postemergence, 125 g ai/ha): 50
Plant response rating, Galium (galium; 500 g ai/ha, postemergence): 90
Plant response rating, Galium (galium; Postemergence, 125 g ai/ha): 40
Plant response rating, Oat, Wild (oat, wild [20]; 500 g ai/ha, postemergence): 20
Plant response rating, Oat, Wild (oat, wild [20]; Postemergence, 125 g ai/ha): 0
Corn plant response rating (corn [21]; 500 g ai/ha): 40
Corn plant response rating (corn [21]; Test C, 125 g ai/ha): 10
Ragweed plant response rating (ragweed [22]; 500 g ai/ha): 0
Ragweed plant response rating (ragweed [22]; Test C, 125 g ai/ha): 0
Ryegrass, Italian plant response rating (ryegrass, Italian [23]; 500 g ai/ha): 90
Ryegrass, Italian plant response rating (ryegrass, Italian [23]; Test C, 125 g ai/ha): 70
